Peptide text beside a SMILES is read from it. * marks the point of attachment. Cbz = O=C(OCc1ccccc1)*; CH2F = FC*
Columns and labels:
Assay type in all cases: cell-based
LNCaP cells = assay: Androgen/anti-androgen treatment of LNCaP cells, Western blot of AMACR and PSA; conditions: LNCaP cells exposed to synthetic androgen, 1 nM, 24 and 48 h
Description: Prostate cell lines (RWPE-1, LNCaP, PC3 and DU145) were obtained from the American Tissue Culture Collection. Cells were maintained in RPMI-1640 with 8% decomplemented fetal bovine serum, 0.1% glutamine and 0.1% penicillin and streptomycin (BioWhittaker, Walkersville, Md.). Cells were grown to 75% confluence and then treated for 24 and 48 with the antiandrogen bicalutamide (CASODEX, Zeneca Pharmaceuticals, Plankstadt, Germany) at a final concentration of 20 μM or with methyltrienolone (synthetic androgen (R1881); NEN, Life Science Products, Boston, Mass.) at a final concentration of 1 nM. Cells were harvested and lysed in NP-40 lysis buffer containing 50 mmol/L Tris-HCl, pH 7.4, 1% Nonidet P-40 (Sigma, St. Louis, Mo.) and complete proteinase inhibitor cocktail (Roche, Ind., USA). 15 μg of protein extracts were mixed with SDS sample buffer and electrophoresed onto a 10% SDS-polyacrylamide gel under reducing conditions. After transferring, the membranes (Amersham Pharmacia Biotech, Piscataway, N.J.) were incubated for 1 hour in blocking buffer (Tris-buffered saline with 0.1% Tween and 5% nonfat dry milk). The AMACR antibody was applied at 1:10.000 diluted blocking buffer overnight at 4° C. […]

HDAC activity = assay: DNA microarray of EZH2-transfected cells, EZH2-mediated gene silencing
Description: Other molecules have been similarly tested with this approach. Cells were transfected with different EZH2 constructs and transfection efficiency was monitored by beta-galactosidase assay and was approximately 30-50%. EZH2.SET mutant expressing samples were compared to EZH2 expressing samples using the SAM analysis package (Tusher et al., PNAS 98:5116 [2001]). Data was pre-processed by multiplication by a normalization factor to adjust the aggregate ratio of medians to one, log base 2 transformed and median centered each array, individually. This pre-processed data was divided into 2 groups for comparison using a two-class, unpaired t-test. […] These 161 genes were supplemented by the values for EZH2 and then analyzed using Cluster implementing average linkage hierarchical clustering of genes. […]
PcG proteins have been proposed to mediate their functions by repression of target genes (Laible et al., supra; Jacobs et al., Semin Cell Dev. Biol. 10:227 [1999]). To begin to test this hypothesis, RWPE prostate cells were transiently transfected with wild-type EZH2 and global gene expression alterations were monitored using DNA microarrays. […]

prostate cells = assay: WST-1 cell proliferation assay after siRNA transfection; conditions: WST-1, caspase inhibitor added to EZH2 siRNA treated cells
Description: 21-nucleotide sense and antisense RNA oligonucleotides were chemically synthesized (Dharmacon Research Inc.) and annealed to form duplexes. The siRNA employed in the study were targeted to the region corresponding from 85 to 106 of the reported human EZH2 (NM004456). Control siRNA duplexes targeted luciferase, lamin and AMACR (NM014324). The human transformed prostate cell line RWPE (Webber et al., Carcinogenesis 18:1225 [1997]) and PC3 were plated at 2×10^5 cells per well in a 12 well plate (for immunoblot analysis, cell counts, and fluorescence activated cell sorting (FACS) analysis) and 1.5×10^4 cell per well in a 96 well plate (for WST-1 proliferation assays). Twelve hours after plating, the cells were transfected with 60 picomoles of siRNA duplex, sense or antisense oligonucleotides (targeting EZH2) using oligofectamine (Invitrogen). […] Cell viability was assessed 60 hours after the initial transfection.
Cell proliferation was determined with the colorimetric assay of cell viability, based on the cleavage of tetrazolium salt WST-1 by mitochondrial dehydrogenases as per manufacturers instructions (Roche, Inc.). The absorbance of the formazan dye formed, which directly correlates with the number of metabolically active cells in the culture, was measured at 450 nm (Bio-Tek instruments), an hour after the addition of the reagent. […]

In the case of `C[C@]1(O)CC[C@H]2[C@@H]3CCC4=CC(=O)CCC4=C3C=C[C@@]21C` [R1881, methyltrienolone], the AMACR expression (LNCaP cells) is reported as “no increase in AMACR expression”.
`CC(/C=C/C(=O)NO)=C\[C@@H](C)C(=O)c1ccc(N(C)C)cc1` [trichostatin A] was tested, and the “effect on EZH2-mediated gene silencing” value (HDAC activity) was “completely abrogated the effects of EZH2”.
For `COC(=O)C[C@H](NC(=O)[C@H](C)NC(=O)[C@@H](NC(=O)OCc1ccccc1)C(C)C)C(=O)CF` [z-VAD-fmk] (Cbz-Val-Ala-Asp(OMe)-CH2F), the “attenuation of EZH2 siRNA induced inhibition of cell proliferation” value (prostate cells) was “failed to attenuate”.
